From patent US4459290A, “C-23-Modified derivatives of OMT, pharmaceutical compositions and method of use” (priority 1982, dated 1984)
Converted amounts (≈) assume the structure as drawn. Like-named read-outs stand apart in the source and are kept apart here.

Assays:
Staphylococcus aureus = assay: MIC, broth-dilution microtiter test (Table VII); type: cell-based; conditions: Staphylococcus aureus
Experimental: (§1) Especially noteworthy is the improved activity against gram-negative bacteria for several derivatives when compared to the activity of OMT. […] The MIC's in Tables V and VI were determined by standard agar-dilution assays. The MIC's in Table VII were obtained using a conventional broth-dilution microtiter test.

[1] = system: Pasteurella multocida 17E; assay: MIC, broth-dilution microtiter test (Table VII); type: cell-based; conditions: Pasteurella multocida; P. multocida 17E, bovine isolate; broth-dilution microtiter; read-out: MIC
Experimental: as §1

Mycoplasma synoviae = assay: MIC, broth-dilution microtiter test (Table VII); type: cell-based; conditions: Mycoplasmopsis synoviae
Experimental: as §1

[2] = system: Pasteurella hemolytica 23C; assay: MIC, broth-dilution microtiter test (Table VII); type: cell-based; conditions: Pasteurella, P. hemolytica 23C, read-out: MIC
Experimental: as §1

Mycoplasma hyorhinis = assay: MIC, broth-dilution microtiter test (Table VII); type: cell-based
Experimental: as §1

[3] = system: Pasteurella multocida 68C; assay: MIC, broth-dilution microtiter test (Table VII); type: cell-based; conditions: Pasteurella multocida; P. multocida 68C; broth-dilution microtiter; read-out: MIC
Experimental: as §1

[4] = system: Pasteurella multocida 40G; assay: MIC, broth-dilution microtiter test (Table VII); type: cell-based; conditions: Pasteurella multocida; P. multocida 40G; broth-dilution microtiter; read-out: MIC
Experimental: as §1

Mycoplasma gallisepticum = assay: MIC, broth-dilution microtiter test (Table VII); type: cell-based; conditions: Mycoplasmoides gallisepticum
Experimental: as §1

[5] = system: Pasteurella multocida 60A; assay: MIC, broth-dilution microtiter test (Table VII); type: cell-based; conditions: Pasteurella multocida; P. multocida 60A, avian isolate; broth-dilution microtiter; read-out: MIC
Experimental: as §1

[6] = system: Pasteurella multocida 22A; assay: MIC, broth-dilution microtiter test (Table VII); type: cell-based; conditions: Pasteurella multocida; P. multocida 22A; broth-dilution microtiter; read-out: MIC
Experimental: as §1

[7] = system: Pasteurella hemolytica 41D; assay: MIC, broth-dilution microtiter test (Table VII); type: cell-based; conditions: Pasteurella, P. hemolytica 41D, read-out: MIC
Experimental: as §1

[8] = system: Pasteurella hemolytica 22C; assay: MIC, broth-dilution microtiter test (Table VII); type: cell-based; conditions: Pasteurella, P. hemolytica 22C, read-out: MIC
Experimental: as §1

Streptococcus sp. 80 = assay: MIC, broth-dilution microtiter test (Table VII); type: cell-based; conditions: Streptococcus sp. 80; broth-dilution microtiter; read-out: MIC
Experimental: as §1

[9] = system: Streptococcus pyogenes C203; assay: ED50 in mice experimentally infected with S. pyogenes C203 (Table VIII); type: in vivo
Experimental: The C-23 modified derivatives of OMT of this invention have shown in vivo antimicrobial activity against experimental infections. When two doses of test compound were administered to mice experimentally infected with a gram-positive bacterium, S. pyogenes C203, the activity observed was measured as an ED50 value [effective dose in mg/kg to protect 50% of the test animals: see Warren Wick, et al., J. Bacteriol. 81, 233-235 (1961)].

Escherichia coli EC14 = assay: MIC, standard agar-dilution assay (Table V); type: cell-based; conditions: Escherichia coli; E. coli EC14; agar dilution; read-out: MIC
Experimental: as §1

[10] = system: Staphylococcus aureus X400; assay: MIC, standard agar-dilution assay (Table V); type: cell-based; conditions: Staphylococcus aureus, X400
Experimental: as §1

Streptococcus Group 9960 = assay: MIC, standard agar-dilution assay (Table V); type: cell-based; conditions: GROUP9960
Experimental: as §1

Shigella sonnei N9 = assay: MIC, standard agar-dilution assay (Table V); type: cell-based
Experimental: as §1

Escherichia coli N10 = assay: MIC, standard agar-dilution assay (Table V); type: cell-based; conditions: Escherichia coli; E. coli N10; agar dilution; read-out: MIC
Experimental: as §1

[11] = system: Staphylococcus epidermidis EPI2; assay: MIC, standard agar-dilution assay (Table V); type: cell-based; conditions: Staphylococcus epidermidis; S. epidermidis EPI2; agar dilution; read-out: MIC
Experimental: as §1

[12] = system: Staphylococcus aureus V41; assay: MIC, standard agar-dilution assay (Table V); type: cell-based; conditions: Staphylococcus aureus, V41
Experimental: as §1

[13] = system: Klebsiella pneumoniae KAE; assay: MIC, standard agar-dilution assay (Table V); type: cell-based; conditions: Klebsiella pneumoniae; K. pneumoniae KAE; agar dilution; read-out: MIC
Experimental: as §1

[14] = system: Staphylococcus epidermidis EPI1; assay: MIC, standard agar-dilution assay (Table V); type: cell-based; conditions: Staphylococcus epidermidis; S. epidermidis EPI1; agar dilution; read-out: MIC
Experimental: as §1

[15] = system: Staphylococcus aureus X1.1; assay: MIC, standard agar-dilution assay (Table V); type: cell-based; conditions: Staphylococcus aureus, X1.1
Experimental: as §1

[16] = system: Klebsiella pneumoniae X26; assay: MIC, standard agar-dilution assay (Table V); type: cell-based; conditions: Klebsiella pneumoniae, X26
Experimental: as §1

[17] = system: Streptococcus Group D X66; assay: MIC, standard agar-dilution assay (Table V); type: cell-based
Experimental: as §1

[18] = system: Staphylococcus aureus S13E; assay: MIC, standard agar-dilution assay (Table V); type: cell-based; conditions: Staphylococcus aureus, S13E
Experimental: as §1

[19] = system: Streptococcus pyogenes C203; assay: MIC, standard agar-dilution assay (Table V); type: cell-based; conditions: Streptococcus pyogenes, C203
Experimental: (§2) The MIC's in Tables V and VI were determined by standard agar-dilution assays. The MIC's in Table VII were obtained using a conventional broth-dilution microtiter test.

[20] = system: Haemophilus influenzae Holt; assay: MIC, standard agar-dilution assay (Table V); type: cell-based; conditions: Haemophilus influenzae
Experimental: as §2

[21] = system: Haemophilus influenzae R252; assay: MIC, standard agar-dilution assay (Table V); type: cell-based; conditions: Haemophilus influenzae, R252
Experimental: as §2

Escherichia coli TEM = assay: MIC, standard agar-dilution assay (Table V); type: cell-based; conditions: Escherichia coli; E. coli TEM; agar dilution; read-out: MIC
Experimental: as §2

these strains = assay: Activity against the strains of Table VI, agar-dilution; type: cell-based; conditions: at the levels tested
Experimental: as §1

C=C1C=CC(=O)C(C)CC(CC=O)C(OC2OC(C)C(O)C(N(C)C)C2O)C(C)C(O)CC(=O)OC(CC)C2CC12 (stereo not drawn) [Compound 16]
MIC (Staphylococcus aureus): 12.5 µg/mL (≈ 21.6 µM)
MIC [1]: 25 µg/mL (≈ 43.1 µM)
MIC (Mycoplasma synoviae): 12.5 µg/mL (≈ 21.6 µM)
MIC [2]: 50 µg/mL (≈ 86.2 µM)
MIC (Mycoplasma hyorhinis): 12.5 µg/mL (≈ 21.6 µM)
MIC [3]: 25 µg/mL (≈ 43.1 µM)
MIC [4]: 25 µg/mL (≈ 43.1 µM)
MIC (Mycoplasma gallisepticum): 1.56 µg/mL (≈ 2.69 µM)
MIC [5]: 25 µg/mL (≈ 43.1 µM)
MIC [6]: 25 µg/mL (≈ 43.1 µM)
MIC [7]: 50 µg/mL (≈ 86.2 µM)
MIC [8]: > 50 µg/mL
MIC (Streptococcus sp. 80): 6.25 µg/mL (≈ 10.8 µM)
ED50 ([9]; C203, po, read-out: ED50, Oral): > 100 mg/kg
ED50 ([9]; C203, sc, read-out: ED50, Subcutaneous): > 30 mg/kg
MIC (Escherichia coli EC14): > 128 µg/mL
MIC [10]: 4 µg/mL (≈ 6.9 µM)
MIC (Streptococcus Group 9960): 8 µg/mL (≈ 13.8 µM)
MIC (Shigella sonnei N9): > 128 µg/mL
MIC (Escherichia coli N10): > 128 µg/mL
MIC [11]: 4 µg/mL (≈ 6.9 µM)
MIC [12]: 4 µg/mL (≈ 6.9 µM)
MIC [13]: > 128 µg/mL
MIC [14]: 4 µg/mL (≈ 6.9 µM)
MIC [15]: 4 µg/mL (≈ 6.9 µM)
MIC [16]: 64 µg/mL (≈ 110 µM)
MIC [17]: 4 µg/mL (≈ 6.9 µM)
MIC [18]: 4 µg/mL (≈ 6.9 µM)
MIC [19]: 1 µg/mL (≈ 1.72 µM)
MIC [20]: 64 µg/mL (≈ 110 µM)
MIC [21]: 64 µg/mL (≈ 110 µM)
MIC (Escherichia coli TEM): > 128 µg/mL
activity against these strains (these strains): did not show activity
